Data reported in PubChem BioAssay AID2060499 (Molecular Pharmacology Branch, DTP, NCI, 2025).
pIC50: −log10 of the molar value.

Test system: 777334-354-R2-J4-PDC tumor spheroids with HUVEC/MSC, viability
Experiment: Anticancer human tumor 777334-354-R2-J4-PDC patient-derived pancreatic adenocarcinoma cell line growth inhibition [GQUAD]
Details: for pIC50: curve of first compound; for viability, T/C: stronger effect = lower value
Outline: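 Viability of tumor cells grown as complex spheroids with endothelial and stromal cells, exposed to drug combinations. Top concentration at or near clinical Cmax (else 10 microM), diluted in half-log increments.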

[1] = second compound 0.0316 µM, first compound 0.0316 µM
[2] = second compound 0.0316 µM, first compound 0.1 µM
[3] = second compound 0.0316 µM, first compound 0.316 µM
[4] = second compound 0.0316 µM, first compound 1 µM
[5] = second compound 0.0316 µM, first compound 3.16 µM
[6] = second compound 0.0316 µM, first compound 10 µM
[7] = second compound 0.1 µM, first compound 0.0316 µM
[8] = second compound 0.1 µM, first compound 0.1 µM
[9] = second compound 0.1 µM, first compound 0.316 µM
[10] = second compound 0.1 µM, first compound 1 µM
[11] = second compound 0.1 µM, first compound 3.16 µM
[12] = second compound 0.1 µM, first compound 10 µM
[13] = second compound 0.316 µM, first compound 0.0316 µM
[14] = second compound 0.316 µM, first compound 0.1 µM
[15] = second compound 0.316 µM, first compound 0.316 µM
[16] = second compound 0.316 µM, first compound 1 µM
[17] = second compound 0.316 µM, first compound 3.16 µM
[18] = second compound 0.316 µM, first compound 10 µM
[19] = second compound 1 µM, first compound 0.0316 µM
[20] = second compound 1 µM, first compound 0.1 µM
[21] = second compound 1 µM, first compound 0.316 µM
[22] = second compound 1 µM, first compound 1 µM
[23] = second compound 1 µM, first compound 3.16 µM
[24] = second compound 1 µM, first compound 10 µM
[25] = second compound 3.16 µM, first compound 0.0316 µM
[26] = second compound 3.16 µM, first compound 0.1 µM
[27] = second compound 3.16 µM, first compound 0.316 µM
[28] = second compound 3.16 µM, first compound 1 µM
[29] = second compound 3.16 µM, first compound 3.16 µM
[30] = second compound 3.16 µM, first compound 10 µM
[31] = second compound 10 µM, first compound 0.0316 µM
[32] = second compound 10 µM, first compound 0.1 µM
[33] = second compound 10 µM, first compound 0.316 µM
[34] = second compound 10 µM, first compound 1 µM
[35] = second compound 10 µM, first compound 3.16 µM
[36] = second compound 10 µM, first compound 10 µM
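Also: spheroids exposed to compounds for 7 days before readout.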

Structure (SMILES): CC1COCCN1c1cc(C2(S(C)(=N)=O)CC2)nc(-c2ccnc3[nH]ccc23)n1 (centres undefined) + Cc1cnc(CNC(=O)c2c(=O)c3ccc(N4CCCN(C)CC4)nc3n3c2sc2ccccc23)cn1
- pIC50 (second compound 0.0316 µM): < 5.00
- pIC50 (second compound 0.1 µM): < 5.00
- pIC50 (second compound 0.316 µM): < 5.00
- pIC50 (second compound 1 µM): < 5.00
- pIC50 (second compound 3.16 µM): < 5.00
- pIC50 (second compound 10 µM): < 5.00
- viability, T/C [1]: 103%
- viability, T/C [2]: 85.7%
- viability, T/C [3]: 113%
- viability, T/C [4]: 93.9%
- viability, T/C [5]: 99%
- viability, T/C [6]: 53.8%
- viability, T/C [7]: 112%
- viability, T/C [8]: 84.4%
- viability, T/C [9]: 94.8%
- viability, T/C [10]: 80.5%
- viability, T/C [11]: 88.9%
- viability, T/C [12]: 53%
- viability, T/C [13]: 84.1%
- viability, T/C [14]: 87.4%
- viability, T/C [15]: 81.2%
- viability, T/C [16]: 82%
- viability, T/C [17]: 86.9%
- viability, T/C [18]: 52.3%
- viability, T/C [19]: 76.2%
- viability, T/C [20]: 93.4%
- viability, T/C [21]: 78.5%
- viability, T/C [22]: 81.5%
- viability, T/C [23]: 68.6%
- viability, T/C [24]: 50.7%
- viability, T/C [25]: 64.5%
- viability, T/C [26]: 57.1%
- viability, T/C [27]: 65%
- viability, T/C [28]: 58.7%
- viability, T/C [29]: 69.2%
- viability, T/C [30]: 54.7%
- viability, T/C [31]: 56.5%
- viability, T/C [32]: 59.5%
- viability, T/C [33]: 53.5%
- viability, T/C [34]: 55.9%
- viability, T/C [35]: 57.5%
- viability, T/C [36]: 44.7%

Structure (SMILES): COc1ccc([C@@H](O)c2cc(-c3ncnc4cc(N5CCOCC5)ccc34)c(F)cc2Cl)nn1 + Cc1cnc(CNC(=O)c2c(=O)c3ccc(N4CCCN(C)CC4)nc3n3c2sc2ccccc23)cn1
- pIC50 (second compound 0.0316 µM): 5.52
- pIC50 (second compound 0.1 µM): 5.79
- pIC50 (second compound 0.316 µM): 5.68
- pIC50 (second compound 1 µM): 5.83
- pIC50 (second compound 3.16 µM): 6.02
- pIC50 (second compound 10 µM): 6.18
- viability, T/C [1]: 101%
- viability, T/C [2]: 94.4%
- viability, T/C [3]: 101%
- viability, T/C [4]: 72.1%
- viability, T/C [5]: 51%
- viability, T/C [6]: 24.6%
- viability, T/C [7]: 102%
- viability, T/C [8]: 84.4%
- viability, T/C [9]: 69.9%
- viability, T/C [10]: 57.9%
- viability, T/C [11]: 42.8%
- viability, T/C [12]: 23.2%
- viability, T/C [13]: 93.9%
- viability, T/C [14]: 89.3%
- viability, T/C [15]: 75.8%
- viability, T/C [16]: 64.8%
- viability, T/C [17]: 42%
- viability, T/C [18]: 20.1%
- viability, T/C [19]: 76.2%
- viability, T/C [20]: 84.1%
- viability, T/C [21]: 69.5%
- viability, T/C [22]: 57.7%
- viability, T/C [23]: 36.3%
- viability, T/C [24]: 19.2%
- viability, T/C [25]: 61.1%
- viability, T/C [26]: 64.9%
- viability, T/C [27]: 63.1%
- viability, T/C [28]: 45.6%
- viability, T/C [29]: 34.9%
- viability, T/C [30]: 17.1%
- viability, T/C [31]: 58.4%
- viability, T/C [32]: 61%
- viability, T/C [33]: 52.5%
- viability, T/C [34]: 48.5%
- viability, T/C [35]: 28.6%
- viability, T/C [36]: 15.6%
